Key:
male rats [1] = experiment: Calculus prevention effect by chelating agents (repeated intravenous administration, 2 weeks); format: in vivo; settings: for Calculi / Hyperplasia of vesical transitional epithelium / Urinary occult blood: mixed with R-CHI3-DTPA-Gd 0.33 mmol/kg i.v.; for Calculi / Hyperplasia of vesical transitional epithelium / Effect of inhibiting production of calculi: male rats; for Urinary occult blood: occurrences/total daily inspections for 14 days; for Effect of inhibiting production of calculi: specimens of R-CHI3-DTPA-Gd mixed with chelating agent, summary in words
Method: To R-CHI3-DTPA-Gd, was added diethylenetriaminepentaacetic acid (DTPA), its calcium complex, or calcium complex of ethylenediaminetetraacetic acid (EDTA). Using them as specimens, toxicity studies by repeated intravenous administration were conducted on male rats for 2 weeks. A group, which is called DTPA-10 group, was administered with a specimen of R-CHI3-DTPA-Gd mixed with DTPA in an amount equivalent to 10 mmol per 500 mmol of the DTPA-Gd portion of the R-CHI3-DTPA-Gd; a group, which is called DTPA-Ca-10 group, was administered with a specimen mixed with calcium complex of DTPA in an amount equivalent to 10 mmol; a group, which is called EDTA-Ca-1 group, was administered with a specimen mixed with calcium complex of EDTA in an amount equivalent 1 mmol; and a group, which is called EDTA-Ca-10 group, was administered with a specimen mixed with calcium complex of EDTA in an amount equivalent to 10 mmol. DTPA and others were mixed with R-CHI3-DTPA-Gd immediately before administration. As control groups, were set up a group that was administered with a physiological saline and a group that was free from a chelating agent (i.e., administered with R-CHI3-DTPA-Gd only). Except the physiological saline-administered group, the dose as R-CHI3-DTPA-Gd was 0.33 mmol/kg.
(The chelating agent-free group is estimated to include individuals that discharged calculi from their urinary bladders, judging from the hyperplasia of vesical transitional epithelium and the frequency of urinary occult blood.)

male rats [2] = experiment: Calculus prevention effect by DTPA (repeated intravenous administration, 2 weeks, two lots); format: in vivo; settings: for Urinary occult blood: occurrences/inspections
Method: Toxicity studies by repeated intravenous administration were conducted on male rats for 2 weeks using, as a specimen, R-CHI3-DTPA-Gd to which DTPA was added. In this test, two lots (hereinafter called lot #1 and lot #2) of R-CHI3-DTPA-Gd were provided, and the following administered groups were set up. […] As control groups, were set up a group that was administered with a physiological saline and a group that was free from a chelating agent (i.e., administered with […] of lot (1) only). Except the physiological saline-administered group, the dose as R-CHI3-DTPA-Gd was 0.33 mmol/kg.

[3] = chelating agent 10 mmol per 500 mmol DTPA-Gd portion
[4] = DTPA 1 mmol per 500 mmol DTPA-Gd portion, R-CHI3-DTPA-Gd lot #1, 0.33 mmol/kg i.v.
[5] = DTPA 1 mmol per 500 mmol DTPA-Gd portion, R-CHI3-DTPA-Gd lot #2, 0.33 mmol/kg i.v.
[6] = DTPA 1.3 mmol per 500 mmol DTPA-Gd portion, R-CHI3-DTPA-Gd lot #2, 0.33 mmol/kg i.v.
[7] = DTPA 3 mmol per 500 mmol DTPA-Gd portion, R-CHI3-DTPA-Gd lot #1, 0.33 mmol/kg i.v.
[8] = DTPA 10 mmol per 500 mmol DTPA-Gd portion, R-CHI3-DTPA-Gd lot #2, 0.33 mmol/kg i.v.
[9] = chelating agent 1 mmol per 500 mmol DTPA-Gd portion

With `O=C([O-])CN(CCN(CCN(CC(=O)[O-])CC(=O)O)CC(=O)O)CC(=O)O.[Ca+2]` [DTPA-Ca] the Calculi (male rats [1]; [3]) was 0/10, the “Hyperplasia of vesical transitional epithelium” value (“Hyperplasia” below) (male rats [1]; [3]) was 0/10 and the Urinary occult blood (male rats [1]; [3]) was 3/140. For the same compound, the “Effect of inhibiting production of calculi” value (male rats [1]) was “significant effect”.

With `O=C(O)CN(CCN(CC(=O)O)CC(=O)O)CCN(CC(=O)O)CC(=O)O` [DTPA, diethylenetriaminepentaacetic acid] the Calculi (male rats [1]; [3]) was 0/10, the “Hyperplasia” value (male rats [1]; [3]) was 0/10 and the Urinary occult blood (male rats [1]; [3]) was 8/140. For the same compound, the “Effect of inhibiting production of calculi” value (male rats [1]) was “significant effect”, the Calculi (male rats [2]; [4]) was 5/10 and the “Hyperplasia” value (male rats [2]; [4]) was 7/10. For the same compound, the Urinary occult blood (male rats [2]; [4]) was 24/140, the Calculi (male rats [2]; [5]) was 5/10 and the “Hyperplasia” value (male rats [2]; [5]) was 6/10. The Urinary occult blood (male rats [2]; [5]) was 27/140, the Calculi (male rats [2]; [6]) was 5/10 and the “Hyperplasia” value (male rats [2]; [6]) was 7/10. For the same compound, the Urinary occult blood (male rats [2]; [6]) was 26/140, the Calculi (male rats [2]; [7]) was 5/10 and the “Hyperplasia” value (male rats [2]; [7]) was 5/10. For the same compound, the Urinary occult blood (male rats [2]; [7]) was 17/140, the Calculi (male rats [2]; [8]) was 3/10 and the “Hyperplasia” value (male rats [2]; [8]) was 4/10. The Urinary occult blood (male rats [2]; [8]) was 19/140.

In the case of `O=C([O-])CN(CCN(CC(=O)[O-])CC(=O)O)CC(=O)O.[Ca+2]` [EDTA-Ca], the Calculi (male rats [1]; [9]) is reported as 4/10, the “Hyperplasia” value (male rats [1]; [9]) is reported as 2/10 and the Urinary occult blood (male rats [1]; [9]) is reported as 17/140. For the same compound, the Calculi (male rats [1]; [3]) was 1/10, the “Hyperplasia” value (male rats [1]; [3]) was 1/10 and the Urinary occult blood (male rats [1]; [3]) was 6/140. The “Effect of inhibiting production of calculi” value (male rats [1]) was “week effect”.
